Legend:
N27 cells = conditions: for toxicity of the analog at higher doses: 30 μM; for neuroprotection compared with rottlerin: caspase-3 activity and cytotoxic cell death; for blockage of MPP+-induced cytotoxicity: co-treated with 0.3, 1 and 3 μM
Method: (§1) At the end of the treatment, cytotoxicity was measured using the Sytox cell death assay in a 96-well fluorescence microplate reader.
A second generation of rottlerin analogs was further utilized for neuroprotection studies, as shown as PK201-203 in FIG. 2.
as §1
The analogs were tested in an N27 dopaminergic cell model for their neuroprotective properties. […] At the end of the treatment, cytotoxicity was measured using the Sytox cell death assay in a 96-well fluorescence microplate reader.
(§2) Rat mesencephalic dopaminergic clonal cells (N27) were used and maintained in RPMI 1640 complete medium supplemented with 10% Fetal Bovine Serum, 1% […] and 1% Penicillin/Streptomycin in a 37° C. incubator with 5% CO2. After 4-6 days in culture, the cells were used for the experiments.
(§3) N27 cells were exposed to MPP^+ for 24 hr in the presence or absence of PK analogs in the dose range of 1-30 μM.

PKCδ = PKCδ (Homo sapiens, UniProt Q05655); test: In vitro 32P phosphorylation kinase assay with histone substrate; assay type: biochemical; conditions: 0.3-10 μM, pure recombinant PKCδ protein
Method: Since PK analogs are directed against PKCδ, it was first determined whether the analogs would inhibit PKCδ enzyme activity in kinase assays. The ability of lead PK analogs to inhibit purified human recombinant PKCδ enzyme activity by 32P phosphorylation kinase assay with histone as the substrate was measured. The in vitro kinase assays were performed with human recombinant PKCδ in the presence or absence of 0.3-10 μM lead PK analogs in the presence histone substrate, [^32P]-ATP and phospholipids. The extent of histone phosphorylation was determined after separation in SDS-PAGE and by phosphoimaging. IC50 was obtained using sigmoidal dose-response curve and non-linear regressional analysis using Graphpad Prism software.
In vitro kinase assays were performed with human recombinant PKCδ in the presence or absence of 0.3-10 μM lead PK analogs in the presence histone substrate, [^32P]-ATP and phospholipids. The extent of histone phosphorylation was determined after separation in SDS-PAGE and by phosphoimaging.

[1] = tested on: caspase-3 activity in N27 cells; test: MPP+-induced caspase-3 activity assay in N27 cells; assay type: cell-based, rat; conditions: for inhibition of MPP+-induced caspase-3 activity: MPP+ 24 hr, dose range 1-30 μM; for blockage of MPP+-induced caspase-3 activity: co-treated with 0.3, 1, 3 and 10 μM
Method: To determine whether PK analogs are neuroprotective against MPP+-induced increases in caspase-3 and DNA fragmentation, their effects on MPP+-induced increases in caspase-3 activity and DNA fragmentation, markers of apoptotic cell death, were examined.
The second generation PK analogs were further tested to determine whether the analogs are neuroprotective against MPP+-induced apoptotic cell death. The effects on MPP+-induced increases in caspase-3 enzymatic activity were analyzed, a marker of apoptotic cell death. […] At the end of the treatment, cytotoxicity was measured using the caspase-3 assay in a 96-well fluorescence microplate reader.
The third generation PK analogs were further tested to determine whether the analogs are neuroprotective against MPP+-induced apoptotic cell death. The effects on MPP+-induced increases in caspase-3 enzymatic activity were examined, a marker of apoptotic cell death. N27 cells were exposed to 300 μM MPP+ for 24 hr in the presence or absence of three different PK compounds in the dose range of 0.3-10 μM. At the end of the treatment, cytotoxicity was measured using the caspase-3 assay in a 96-well fluorescence microplate reader.
as §2, §3

[2] = Activity of simple rottlerin analogs compared with rottlerin (test not named)
Method: Design and Synthesis of Novel Rottlerin Analogs. Since Rottlerin has proven to be a difficult target to make synthetically, analogs have been developed and tested in an attempt to localize the region of activity and improve that activity. Initially, simple analogs of Rottlerin itself, obtained from CalBioChem (La Jolla, Calif., Cat #557370), were prepared and analyzed. Two compounds gave important results, one representing a simplified methylene linkage present in the parent compound (PK103), and the other (PK203) came from a simple bromination of natural Rottlerin.

PKCδ, sequence (Q05655 whole entry): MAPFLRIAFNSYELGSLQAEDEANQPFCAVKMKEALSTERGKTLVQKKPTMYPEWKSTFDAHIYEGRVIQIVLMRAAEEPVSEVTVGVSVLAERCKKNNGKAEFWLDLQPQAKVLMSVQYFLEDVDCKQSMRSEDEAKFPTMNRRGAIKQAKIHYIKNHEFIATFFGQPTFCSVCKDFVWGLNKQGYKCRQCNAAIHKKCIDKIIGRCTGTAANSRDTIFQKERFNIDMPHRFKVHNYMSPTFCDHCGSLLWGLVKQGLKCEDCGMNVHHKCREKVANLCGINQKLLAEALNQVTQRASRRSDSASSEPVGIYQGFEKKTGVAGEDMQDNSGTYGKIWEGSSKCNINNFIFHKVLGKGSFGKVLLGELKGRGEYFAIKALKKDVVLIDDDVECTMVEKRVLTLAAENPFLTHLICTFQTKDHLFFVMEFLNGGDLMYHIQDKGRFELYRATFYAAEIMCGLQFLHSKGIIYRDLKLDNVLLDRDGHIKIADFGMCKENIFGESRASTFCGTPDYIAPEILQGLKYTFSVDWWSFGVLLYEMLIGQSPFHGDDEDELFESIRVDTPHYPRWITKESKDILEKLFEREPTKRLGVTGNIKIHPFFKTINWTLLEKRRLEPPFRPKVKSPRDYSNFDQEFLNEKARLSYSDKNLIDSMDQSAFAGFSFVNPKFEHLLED

## COc1cc(OC)c(C(=O)/C=C/c2ccccc2)c2c1C=CC(C)(C)O2 [PK111]
N27 cells
  toxicity of the analog at higher doses: toxic
N27 cells; MPP+ 24 hr
  neuroprotection compared with rottlerin: better neuroprotection than the parent compound rottlerin
N27 cells; MPP+ 24 hr, dose range 1-30 μM
  inhibition of MPP+-induced cytotoxic cell death: almost completely inhibited
PKCδ
  inhibition of PKCδ kinase activity: inhibited
[1]
  inhibition of MPP+-induced caspase-3 activity: almost completely inhibited

## COc1cc2c(c3c1C=CC(C)(C)O3)C(=O)CC(c1ccccc1)O2 (stereo not drawn) [PK112]
N27 cells
  toxicity of the analog at higher doses: toxic
N27 cells; MPP+ 24 hr
  neuroprotection compared with rottlerin: better neuroprotection than the parent compound rottlerin
PKCδ
  inhibition of PKCδ kinase activity: inhibited
[1]
  inhibition of MPP+-induced caspase-3 activity: almost completely inhibited

## CC(=O)c1c(O)c(C)c(O)c(Cc2c(O)c3c(c(C(=O)/C=C/c4ccccc4)c2O)OC(C)(C)CC3)c1O [PK201]
N27 cells; 300 μM MPP+ 24 hr
  blockage of MPP+-induced cytotoxicity: significant blockage
[1]; 300 μM MPP+ 24 hr
  blockage of MPP+-induced caspase-3 activity: dose-dependent blockage

## CC(=O)c1c(O)c(C)c(O)c(Cc2c(O)c(C(=O)/C=C/c3ccccc3)c3c(c2O)C(Br)C(Br)C(C)(C)O3)c1O (stereo not drawn) [PK203]
N27 cells; 300 μM MPP+ 24 hr
  blockage of MPP+-induced cytotoxicity: significant blockage
[1]; 300 μM MPP+ 24 hr
  blockage of MPP+-induced caspase-3 activity: dose-dependent blockage
[2]
  activity compared with Rottlerin: less activity than Rottlerin

## CC(=O)c1c(O)cc(O)cc1O [PK303, acytyl phloroglucinol]
N27 cells; 300 μM MPP+ 24 hr
  relative potency against MPP+-induced cytotoxic cell death within the generation: more potent inhibitors than PK301
  blockage of MPP+-induced cytotoxicity: significant blockage
[1]; 300 μM MPP+ 24 hr, 0.3-10 μM
  relative protection against MPP+-induced caspase-3 activity within the generation: more effectively protect
[1]; 300 μM MPP+ 24 hr
  blockage of MPP+-induced caspase-3 activity: significant blockage

From patent US8586768B2, “Design, synthesis and functional characterization of rottlerin analogs” (priority 2009, dated 2013)
